The subject of one data set is skin fibrosis markers. Particulars: clinical trial; Rice et al. 2015; cited from earlier work.
A short description of data set [1]: PK analysis of blood samples after last dose in bleomycin-treated Balb/C mice. The format is in vivo, mouse (Balb/C). The note with it: 5 mg/kg b.i.d. oral for 3 weeks; FIG. 2A. As to the method: (§1) The plasma concentrations of compound of formula (I′) were determined by a liquid chromatography-tandem mass spectrometry (LC/MS/MS) assay. Briefly, mouse plasma samples were extracted with a methanol-acetonitrile mixture (3:1, v/v). Supernatant was injected onto HPLC system with a Waters Atlantis T3 analytical column (2.1×30 mm, 3.5 μm, Waters Corp., Milford, Mass., USA). The mobile phases consisted of 0.1% formic acid in water (solvent A) and 0.1% formic acid in acetonitrile (solvent B), and a gradient elution method (0-1.5 min, 10% B to 95% B; 1.5-2.0 min, 95% B; 2.01 min, 10% B) at flow rate of 800 μL/min was employed for chromatographic separation. […] Multiple reaction monitoring (MRM) of compound of formula (I′) and internal standard was used for quantitative measurements, and peak integration was performed using Analyst™ 1.4 software. […] Pharmacokinetic parameters were calculated by non-compartmental regression analysis using an in house fitting program.
In a separate study to confirm the on-target activity of compound of formula (I′) in a mouse fibrosis model, bleomycin was injected in Balb/C mice, with or without orally dosed compound of formula (I′) at 5 mg/kg b.i.d. for 3 weeks. […] Tissue samples were collected 7 hour after the last dose, and the Wnt pathway target gene Axin2 mRNA expression level was measured with qRT-PCR, with the housekeeping gene, Gapdh, as an internal control.

The test system of data set [2] is Wnt pathway target gene Axin2 mRNA. In words: Axin2 mRNA expression in skin tissue of bleomycin-treated Balb/C mice (qRT-PCR/TaqMan). The note with it: 5 mg/kg b.i.d. oral 3 weeks, tissue 7 hour after last dose, Gapdh internal control; FIG. 2B. It counts as in vivo, mouse (Balb/C). How it is done: Total RNA was isolated from tissue samples and processed to perform quantitative RT-PCR analysis of […] mRNA expression, with Gapdh serving as an internal control according to the manufacturer's instructions, as previously described.
Data were analyzed with SDS 2.0 software (Applied Biosystems), statistical analysis was conducted using PRISM.
In a separate study to confirm the on-target activity of compound of formula (I′) in a mouse fibrosis model, bleomycin was injected in Balb/C mice, with or without orally dosed compound of formula (I′) at 5 mg/kg b.i.d. for 3 weeks. Blood samples at multiple time points after the last dose were collected. […] Tissue samples were collected 7 hour after the last dose, and the Wnt pathway target gene Axin2 mRNA expression level was measured with qRT-PCR, with the housekeeping gene, Gapdh, as an internal control.
(Real-time PCR tracks product formation cycle by cycle.)

Data set [3] can be described thus: Plasma exposure after last oral dose in Tsk-1 model. The format is in vivo, mouse (Tsk-1). The note with it: FIG. 3E. As to the method: as §1
Similar to that described for the bleomycin-induced mouse fibrosis model, plasma exposures of compound of formula (I′) in this tight skin model were also determined following the last oral dose, and PK data are shown in FIG. 3E.

Data set [4] concerns bleomycin-induced skin fibrosis. The experiment in a line: Bleomycin-induced mouse skin fibrosis model, 3 weeks bleomycin then 3 weeks treatment. The note with it: for dermal skin thickness: FIG. 1B. The format is in vivo, mouse (female C57/BI6). As to the method: In the bleomycin model (FIG. 1 (A-E) and FIG. 2 (A-B)), fibrosis was induced in 6-week-old female C57/BI6 mice (Charles River, Sulzfeld, Germany) by injection of 100 μL 0.5 mg/ml bleomycin into a defined skin area of 1 cm' between the shoulders at the back every other day for up to six weeks. Control mice were injected with 0.9% NaCl, the solvent of bleomycin. Another group of mice received bleomycin injections for 3 weeks followed by saline (NaCl) injections for the next 3 weeks to control for spontaneous regression of fibrosis. Animals were treated with or without compound of formula (I′) at multiple dose levels twice daily for indicated weeks using suspension formulation containing 0.5% methylcellulose and 0.5% tween 80. Each group of mice were killed and the skin sections analyzed.
(§2) The anti-fibrotic effects of compound of Formula (I′) on experimental skin fibrosis was evaluated by quantification of dermal or hypodermal thickening, respectively, analyses of myofibroblast counts and assessment of hydroxyproline content. Tissue samples were fixed in 10% phosphate-buffered formalin for 24 hours, then embedded in paraffin and cut into […] sections. The slides were stained with hematoxylin and eosin for better visualization of the tissue structure.
(§3) The hydroxyproline content was measured according to the method as described in hydroxyproline content (Woessner J. F. Arch. Biochem. Biophys. […], 93, 440-447).
(§4) The dermal thickness was analyzed with a microscope by measuring the maximal distance between the epidermal-dermal junction and the dermal-subcutaneous fat junction at 4 different skin sections in each mouse.
(§5) For quantification of myofibroblasts, skin sections were deparaffinized and incubated with 5% bovine serum albumin for 60 minutes. Cells positive for α-smooth muscle actin (α-SMA) were detected by incubation with monoclonal anti-α-SMA antibodies (clone 1A4; Sigma-Aldrich, Steinheim, Germany) for 2 hours at room temperature followed by incubation with 3% hydrogen peroxide for 10 minutes. […] antibodies labeled with horseradish peroxidase were used as secondary antibodies. The expression of α-SMA was visualized with 3,3′-diaminobenzidine tetrahydrochloride. Monoclonal mouse IgG antibodies were used as controls
Porcupine Inhibitor Compound of Formula (I′) in the Bleomycin-Induced Mouse Fibrosis Model To test compound of formula (I′) for anti-fibrotic effects, bleomycin was injected in 6-week-old female C57/BI6 mice for 3 weeks to induce fibrosis (FIG. 1A). The control group was injected with saline. The bleomycin treated animals were further dosed with or without compound of formula (I′) b.i.d. for another 3 weeks. […] Similar observations have been obtained when examining the hydroxyproline content and myofibroblast count of mouse skin samples as shown in FIG. 1C and FIG. 1D.

The nature of data set [5]: Plasma exposure after last oral dose in bleomycin model (C57/BI6). The format is in vivo, mouse (female C57/BI6). The note with it: FIG. 1E. How it is done: The plasma concentrations of compound of formula (I′) were determined by a liquid chromatography-tandem mass spectrometry (LC/MS/MS) assay. Briefly, mouse plasma samples were extracted with a methanol-acetonitrile mixture (3:1, v/v). Supernatant was injected onto HPLC system with a Waters Atlantis T3 analytical column (2.1×30 mm, 3.5 μm, Waters Corp., Milford, Mass., USA). The mobile phases consisted of 0.1% formic acid in water (solvent A) and 0.1% formic acid in acetonitrile (solvent B), and a gradient elution method (0-1.5 min, 10% B to 95% B; 1.5-2.0 min, 95% B; 2.01 min, 10% B) at flow rate of 800 μL/min was employed for chromatographic separation. Mass spectrometric analysis was performed on a SCIEX API-4000 triple quadruple mass spectrometer (Applied Biosystems, Foster City, Calif., USA) using atmospheric pressure chemical ionization (APCI) in the positive ion mode. Multiple reaction monitoring (MRM) of compound of formula (I′) and internal standard was used for quantitative measurements, and peak integration was performed using Analyst™ 1.4 software. The lower limit of detection for the assay was 1 ng/mL. Pharmacokinetic parameters were calculated by non-compartmental regression analysis using an in house fitting program.

Data set [6] relates to bleomycin-induced skin fibrosis. In words: Bleomycin mouse fibrosis model in Balb/C mice, skin thickness (FIG. 4). The format is in vivo. How it is done:
To test compound of formula (I′) and compound of formula (I″) in a mouse fibrosis model, bleomycin was injected in Balb/C mice, with or without orally dosed compound of formula (I′) (5 mg/kg b.i.d.) and compound of formula (I″) (1 mg/kg b.i.d.) for 3 weeks. Skin tissue samples were taken at the end of the study and embedded in paraffin and skin thickness was measured (FIG. 4). Furthermore, the bleomycin treated animals were treated with or without orally dosed compound of formula (I′) at a dose of 5 mg/kg b.i.d. and compound of formula (I″) at a dose of 1 mg/kg b.i.d. for three weeks.

The test system of another data set is Tsk-1 mice fibrosis. In words: Tight skin (Tsk-1) mouse genetic fibrosis model. It counts as in vivo, mouse (Tsk-1). Particulars: for skin thickness: FIG. 3B; for myofibroblast count: FIG. 3D; for anti-fibrotic effects: Tsk-1 model. As to the method: In the Tsk-1 model (FIG. 3(A-F)), treatment with compound of formula (I′) was started at the age of 5 weeks and was continued for 5 weeks. Animals were treated with or without compound of formula (I′) at multiple dose levels twice daily using suspension formulation containing 0.5% methylcellulose and 0.5% tween 80.
as §2, §3, §4
The Hypodermal thickness in TSK-1 mice was determined by measuring the thickness of the subcutaneous connective tissue beneath the panniculus carnosus at 4 different sites of the upper back in each mouse. The evaluation was performed by 2 independent examiners.
as §5
To further test the anti-fibrotic effects of compound of formula (I′), we turned to a mouse genetic fibrosis model, the tight skin model (Tsk-1). Tsk-1 mice contain a spontaneous duplication mutation of fibrillin-1 gene, which leads to activation of TGFβ signaling, and the subsequent fibrosis (increased in dermal and hypodermal thickness).
Five week old wild type or Tsk-1 mice were treated with or without compound of formula (I′) b.i.d. for 5 weeks (FIG. 3A).

Data set [7] relates to primary kidney fibroblasts. Particulars: Madan et al. 2016; cited from earlier work.
Setting [8] is: all dose levels (2.5, 5, 10 mg/kg) b.i.d. for 5 weeks.

This is an account of results in patent US20200306244A1, “WNT INHIBITORS FOR USE IN THE TREATMENT OF FIBROSIS” (NOVARTIS AG, priority 2016, published 2020).

On to Fresolimumab: anti-TGFβ antibody, for which the skin fibrosis markers entry in the data set with skin fibrosis markers is “Reduction of the skin fibrosis markers has been observed”.

`CC(=O)N1CCN(c2ccc(NC(=O)Cc3cnc(-c4ccnc(F)c4)c(C)c3)nc2)CC1` [compound of formula (I′), N-(5-(4-acetylpiperazin-1-yl)pyridin-2-yl)-2-(2′-fluoro-3-methyl-[2,4′-bipyridin]-5-yl)acetamide]: in data set [1], the oral bioavailability result is recorded as “good oral bioavailability”. For the same molecule, in data set [2], the “reduction of Axin2 mRNA expression” value was found to be 54%. For the same molecule, the “plasma exposures compared with bleomycin model” value in [3] (after last oral dose) is “comparable between the two separate experiments”. Further, the “plasma exposures, dose proportionality” value in [3] (from […] to 10 mg/kg) and in data set [5] (from […] to 10 mg/kg) was “increased approximately dose proportionally” throughout. Further, the dermal skin thickness result in [4] (5 mg/kg and 10 mg/kg groups, oral b.i.d. 3 weeks) is given as “reduced the skin thickness to levels lower than the baseline”; in [4] (all dose levels (2.5, 5, 10 mg/kg) oral b.i.d. for 3 weeks after 3 weeks bleomycin), “reduced dermal skin thickness at all dose levels in a dose dependent manner”; in data set [6] (5 mg/kg b.i.d. oral for three weeks), “induce the reduction of dermal skin thickness”. The “fibrosis reversal (hydroxyproline content and myofibroblast count)” value in data set [4] (5 and 10 mg/kg groups) is “strong evidence of fibrosis reversal”. The hydroxyproline content result was “to levels lower than the baseline and closer to the control group” in data set [4] (all dose levels (2.5, 5, 10 mg/kg) oral b.i.d., FIG. 1C); “significant anti-fibrotic effects at all dose levels” in the data set on Tsk-1 mice fibrosis (all dose levels (2.5, 5, 10 mg/kg) b.i.d. for 5 weeks, FIG. 3C). In addition, the myofibroblast count entry is “to levels lower than the baseline and closer to the control group” in data set [4] (all dose levels (2.5, 5, 10 mg/kg) oral b.i.d., FIG. 1D); “reduction of the myofibroblast count towards control level” in the data set on Tsk-1 mice fibrosis (5 and 10 mg/kg groups); “significant anti-fibrotic effects at all dose levels” with Tsk-1 mice fibrosis (setting [8]). In data set [5] (after last oral dose, 2.5-10 mg/kg b.i.d.), the “absorption and oral exposure” value was “highly absorbed and showed high oral exposures”. The skin thickness result was “reduced to levels lower than the baseline and closer to the control group” in the data set with Tsk-1 mice fibrosis (5 and 10 mg/kg groups); “significant anti-fibrotic effects at all dose levels” in the data set on Tsk-1 mice fibrosis (setting [8]). For the same molecule, the hypodermal skin thickness entry in the data set on Tsk-1 mice fibrosis (H&E staining of mouse skin samples, FIG. 3F) is given as “significantly reduced hypodermal skin thickness”. Besides, the anti-fibrotic effects result in the data set with Tsk-1 mice fibrosis is “robust anti-fibrotic effects”.

For `Cc1cc(-c2ncc(CC(=O)Nc3ccc(-c4cnccn4)cn3)cc2C)ccn1` [compound of formula (I″), 2-(2′,3-dimethyl-[2,4′-bipyridin]-5-yl)-N-(5-(pyrazin-2-yl)pyridin-2-yl)acetamide], in data set [6] (1 mg/kg b.i.d. oral for three weeks), the dermal skin thickness result was “induce the reduction of dermal skin thickness”. Besides, the “in vivo activity compared to compound of Formula (I′)” value in data set [6] (1 mg/kg b.i.d. vs 5 mg/kg b.i.d.) is “showed even better in vivo activities”. Also, in the data set on Tsk-1 mice fibrosis, the anti-fibrotic effects entry was “robust anti-fibrotic effects”.

In the case of `Cc1cc(-c2ccc(CC(=O)Nc3ccc(-c4cccnc4)cc3)cc2)ccn1` [C59], the “TGFβ-induced Axing induction” value in data set [7] was “could abrogate TGFβ-induced Axing induction”.
